Experimental data taken from patent US12590087B2, “Inhibiting USP36” (Valo Health, Inc., priority 2019, dated 2026).

Molecular target: T1, human USP36 (81-461) (Homo sapiens, UniProt Q9P275)
T1 sequence (Q9P275 81-461): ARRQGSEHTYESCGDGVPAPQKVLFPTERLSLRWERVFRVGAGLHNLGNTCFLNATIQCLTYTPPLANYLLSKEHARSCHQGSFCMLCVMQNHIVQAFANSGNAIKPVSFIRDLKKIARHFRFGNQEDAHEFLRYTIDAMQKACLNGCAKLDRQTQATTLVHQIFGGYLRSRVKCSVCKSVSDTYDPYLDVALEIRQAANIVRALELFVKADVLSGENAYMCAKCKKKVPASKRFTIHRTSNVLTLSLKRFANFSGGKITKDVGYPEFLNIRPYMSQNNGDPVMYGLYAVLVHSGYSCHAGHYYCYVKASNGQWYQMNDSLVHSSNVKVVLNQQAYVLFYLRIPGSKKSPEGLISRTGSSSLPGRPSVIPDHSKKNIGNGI
Experiment: USP36 inhibition biochemical assay
Settings: read-out: USP 36 IC50; 2 nM human USP36 (81-461), 25 nM Ub-Rh110MP substrate, 30 minutes preincubation with compound, fluorescence rate over 10 minutes
Protocol: Test compounds were serially diluted in DMSO (Sigma, G7516) to obtain 10-point, 3-fold series. […] Enzyme and substrate concentrations and incubation times were optimized for the maximal signal-to-background while maintaining linear initial velocity conditions at a fixed substrate concentration below Km.
Rates were calculated by: rate=((final FLU−initial FLU)/600 seconds) where final FLU=fluorescence at time 10 minutes, initial FLU=fluorescence at time 0 minutes and 600=duration of reaction in seconds.
Data were reported as percent inhibition compared with control wells based on the following equation: % inh=100*((rate−AveLow)/(AveHigh−AveLow)) where rate=measured rate of fluorescence generated during assay, AveLow=average rate of no enzyme control (n=32), and AveHigh=average rate of DMSO control (n=32).
Data were fitted using the Levenburg Marquardt algorithm.

## O=C(Nc1snnc1C(=O)Nc1ccc(N2CCCC2)cc1)c1cncc(C(F)(F)F)c1 [Compound 1, N-(4-(pyrrolidin-1-yl)phenyl)-5-(5-(trifluoromethyl)nicotinamido)-1,2,3-thiadiazole-4-carboxamide]
  IC50: 198 nM
